Patent publication US8247211B2, “Glycopeptide antibiotics” (American Cyanamid Company, priority 2001, dated 2012)
≈ marks a conversion by molar mass, not a printed value.

Columns and labels:
[1] = system: Staphylococcus aureus-SMITH (GC 4543); experiment: Acute lethal infection in mice (ED50); format: in vivo; conditions: female CD-1 mice, intraperitoneal challenge, intravenous dose 30 min. after infection, 7 day survival ratios
Outline: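 IP bacterial challenge, female CD-1 mice; inoculum lethal to untreated controls in 24-48 hr. IV dosing in saline or 5% dextrose 30 min post-infection, 5 mice/dose. ED50 from 7-day survival, 3 tests pooled.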

[2] = system: Escherichia coli; experiment: In vitro antibacterial evaluation: minimum inhibitory concentration (MIC), broth dilution method; format: cell-based
Outline: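 Using Muller-Hinton II […] and an inoculum of 5×10^5 CFU/mL, antibiotic dilutions from 64 down to 0.06 μg/mL were tested following NCCLS M7-A2. The MIC is the lowest concentration inhibiting growth, including in methicillin-, penicillin- or vancomycin-resistant clinical isolates.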

[3] = system: Enterococcus sp.; experiment: as above; format: cell-based
Outline: (§1)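 Test strains, among them recent clinical isolates carrying methicillin, penicillin and/or vancomycin resistance, were inoculated at 5×10^5 CFU/mL. A broth dilution series spanning 64-0.06 μg/mL in Muller-Hinton II […] (NCCLS M7-A2) defined the MIC as the lowest growth-inhibiting concentration.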

[4] = system: Streptococcus sp.; experiment: as above; format: cell-based
Outline: as §1

[5] = system: Staphylococcus sp.; experiment: as above; format: cell-based; conditions: broth dilution, 18 hours at 35° C.
Outline: as §1

Question: For CC(c1ccccc1)C1NC(=O)CNC(=O)C(CO)NC(=O)C(C(O)C2CNC(=N)N2C2OC(CO)C(O)C(O)C2O)NC(=O)C(C(O)C2CNC(=N)N2)NC(=O)C(Cc2ccc(OC3OC(CO)C(OC4OC5COC(c6cccc(-c7ccccc7)c6)OC5C(O)C4O)C(O)C3O)cc2)NC1=O (stereo not drawn) [Example 154, Cyclo[glycyl-β-methylphenylalanyl-O-[4-O-[4,6-O-(3-phenylbenzylidene)hexopyranosyl)-hexopyranosyl]tyrosyl-3-(2-iminoimidazolidin-4-yl)seryl-3-(3-hexopyranosyl-2-iminoimidazolidin-4-yl)serylseryl]], which median effective dose (ED50), Staphylococcus aureus-SMITH (GC 4543) [1] is on record?
Answer: Its median effective dose (ED50), Staphylococcus aureus-SMITH (GC 4543) is 0.1 mg/kg.

Question: And the “MIC Escherichia coli (ATCC 25922)” value ([2]; strain ATCC 25922)?
Answer: Its value is 32 µg/mL (≈ 21.9 µM).

Question: And the “MIC Escherichia coli (GC 4559)” value ([2]; strain GC 4559)?
Answer: The value was 32 µg/mL (≈ 21.9 µM).

Question: What about the “MIC Escherichi coli (GC 4560)” value ([2]; strain GC 4560) of the same compound?
Answer: Its value is 2 µg/mL (≈ 1.37 µM).

Question: And the “MIC Enterococcus avium (GC 4558)” value ([3]; Enterococcus avium (GC 4558), broth dilution, 18 hours at 35° C.)?
Answer: The value was 1 µg/mL (≈ 0.685 µM).

Question: And the “MIC Enterococcus faecalis (ATCC 29212)” value ([3]; Enterococcus faecalis (ATCC 29212), broth dilution, 18 hours at 35° C.)?
Answer: The value was 2 µg/mL (≈ 1.37 µM).

Question: And the “MIC Enterococcus faecalis (GC 4552)” value ([3]; Enterococcus faecalis (GC 4552), broth dilution, 18 hours at 35° C.)?
Answer: The value was 2 µg/mL (≈ 1.37 µM).

Question: And the “MIC Enterococcus faecalis (GC 4553)” value ([3]; Enterococcus faecalis (GC 4553), broth dilution, 18 hours at 35° C.)?
Answer: Its value is 2 µg/mL (≈ 1.37 µM).

Question: What about the “MIC Enterococcus faecalis (GC 4554)” value ([3]; Enterococcus faecalis (GC 4554), broth dilution, 18 hours at 35° C.) of the same compound?
Answer: Its value is 2 µg/mL (≈ 1.37 µM).

Question: And the “MIC Enterococcus faecalis (GC 6189)” value ([3]; Enterococcus faecalis (GC 6189), broth dilution, 18 hours at 35° C.)?
Answer: Its value is 2 µg/mL (≈ 1.37 µM).

Question: And the “MIC Enterococcus faecium (GC 2243)” value ([3]; Enterococcus faecium (GC 2243), broth dilution, 18 hours at 35° C.)?
Answer: Its value is 2 µg/mL (≈ 1.37 µM).

Question: And the “MIC Enterococcus faecium (GC 4556)” value ([3]; Enterococcus faecium (GC 4556), broth dilution, 18 hours at 35° C.)?
Answer: The value was 2 µg/mL (≈ 1.37 µM).

Question: What about the “MIC Enterococcus faecium (GC 4557)” value ([3]; Enterococcus faecium (GC 4557), broth dilution, 18 hours at 35° C.) of the same compound?
Answer: The value was 2 µg/mL (≈ 1.37 µM).

Question: And the “MIC Enterococcus faecalis (ATCC 29212)” value ([3]; strain ATCC 29212)?
Answer: Its value is 2 µg/mL (≈ 1.37 µM).

Question: And the “MIC Enterococcus faecalis (GC 2242)” value ([3]; strain GC 2242)?
Answer: Its value is 2 µg/mL (≈ 1.37 µM).

Question: What about the “MIC Enterococcus faecium (GC 2243)” value ([3]; strain GC 2243) of the same compound?
Answer: Its value is 2 µg/mL (≈ 1.37 µM).

Question: And the “MIC Enterococcus faecalis (GC 2691)” value ([3]; strain GC 2691)?
Answer: Its value is 2 µg/mL (≈ 1.37 µM).

Question: What about the “MIC Enterococcus faecalis (GC 3059)” value ([3]; strain GC 3059) of the same compound?
Answer: The value was 2 µg/mL (≈ 1.37 µM).

Question: What about the “MIC Enterococcus faecalis (GC 4552)” value ([3]; strain GC 4552) of the same compound?
Answer: Its value is 2 µg/mL (≈ 1.37 µM).

Question: What about the “MIC Enterococcus faecalis (GC 4553)” value ([3]; strain GC 4553) of the same compound?
Answer: Its value is 2 µg/mL (≈ 1.37 µM).

Question: And the “MIC Enterococcus faecalis (GC 4554)” value ([3]; strain GC 4554)?
Answer: The value was 2 µg/mL (≈ 1.37 µM).

Question: What about the “MIC Enterococcus faecium (GC 4556)” value ([3]; strain GC 4556) of the same compound?
Answer: The value was 2 µg/mL (≈ 1.37 µM).

Question: And the “MIC Enterococcus faecium (GC 4557)” value ([3]; strain GC 4557)?
Answer: Its value is 2 µg/mL (≈ 1.37 µM).

Question: What about the “MIC Enterococcus avium (GC 4558)” value ([3]; strain GC 4558) of the same compound?
Answer: Its value is 1 µg/mL (≈ 0.685 µM).

Question: What about the “MIC Enterococcus faecalis (GC 6189)” value ([3]; strain GC 6189) of the same compound?
Answer: The value was 2 µg/mL (≈ 1.37 µM).

Question: And the “MIC Streptococcus pneumoniae (ATCC 6301)” value ([4]; strain ATCC 6301)?
Answer: The value was under 0.06 µg/mL.

Question: And the “MIC Streptococcus pneumoniae (GC 1894)” value ([4]; strain GC 1894)?
Answer: The value was under 0.06 µg/mL.

Question: And the “MIC Streptococcus pyogenes (GC 4563)” value ([4]; strain GC 4563)?
Answer: Its value is under 0.06 µg/mL.

Question: What about the “MIC Streptococcus agalactiae (GC 4564)” value ([4]; strain GC 4564) of the same compound?
Answer: Its value is under 0.06 µg/mL.

Question: What about the “MIC Streptococcus pneumoniae (GC 4565)” value ([4]; strain GC 4565) of the same compound?
Answer: The value was under 0.06 µg/mL.

Question: And the “MIC Coagulase Negative Staphylococcus (GC 4547)” value ([5]; 5×10^5 CFU/mL)?
Answer: Its value is 2 µg/mL (≈ 1.37 µM).

Question: What about the “MIC Coagulase Negative Staphylococcus (GC 4548)” value ([5]; 5×10^5 CFU/mL) of the same compound?
Answer: The value was 0.5 µg/mL (≈ 0.343 µM).

Question: And the “MIC Coagulase Negative Staphylococcus (GC 4549)” value ([5]; 5×10^5 CFU/mL)?
Answer: The value was 0.25 µg/mL (≈ 0.171 µM).

Question: What about the “MIC Coagulase Negative Staphylococcus (GC 4551)” value ([5]; 5×10^5 CFU/mL) of the same compound?
Answer: Its value is 2 µg/mL (≈ 1.37 µM).

Question: And the “MIC Coagulase Negative Staphylococcus (GC 6257)” value ([5]; 5×10^5 CFU/mL)?
Answer: Its value is 1 µg/mL (≈ 0.685 µM).

Question: What about the “MIC Staphylococcus aureus (ATCC 29213)” value ([5]; 5×10^5 CFU/mL) of the same compound?
Answer: The value was 1 µg/mL (≈ 0.685 µM).

Question: And the “MIC Staphylococcus aureus (GC 1131)” value ([5]; 5×10^5 CFU/mL)?
Answer: The value was 1 µg/mL (≈ 0.685 µM).

Question: What about the “MIC Staphylococcus aureus (GC 3051)” value ([5]; 5×10^5 CFU/mL) of the same compound?
Answer: The value was 1 µg/mL (≈ 0.685 µM).

Question: What about the “MIC Staphylococcus aureus (GC 3053)” value ([5]; 5×10^5 CFU/mL) of the same compound?
Answer: Its value is 2 µg/mL (≈ 1.37 µM).

Question: And the “MIC Staphylococcus aureus (GC 4541)” value ([5]; 5×10^5 CFU/mL)?
Answer: The value was 1 µg/mL (≈ 0.685 µM).

Question: And the “MIC Staphylococcus aureus (GC 4542)” value ([5]; 5×10^5 CFU/mL)?
Answer: Its value is 1 µg/mL (≈ 0.685 µM).

Question: What about the “MIC Staphylococcus aureus (GC 4544)” value ([5]; 5×10^5 CFU/mL) of the same compound?
Answer: Its value is 2 µg/mL (≈ 1.37 µM).

Question: And the “MIC Staphylococcus aureus (GC 4545)” value ([5]; 5×10^5 CFU/mL)?
Answer: The value was 1 µg/mL (≈ 0.685 µM).

Question: And the “MIC Staphylococcus aureus-SMITH (GC 4543)” value ([5]; 5×10^5 CFU/mL)?
Answer: The value was 1 µg/mL (≈ 0.685 µM).

Question: What about the “MIC Staphylococcus haemolyticus (GC 4546)” value ([5]; 5×10^5 CFU/mL) of the same compound?
Answer: Its value is 1 µg/mL (≈ 0.685 µM).

Question: What about the “MIC Staphylococcus aureus (ATCC 29213)” value ([5]; strain ATCC 29213) of the same compound?
Answer: The value was 1 µg/mL (≈ 0.685 µM).

Question: And the “MIC Staphylococcus aureus (GC 1131)” value ([5]; strain GC 1131)?
Answer: The value was 1 µg/mL (≈ 0.685 µM).

Question: And the “MIC Staphylococcus aureus (GC 3051)” value ([5]; strain GC 3051)?
Answer: Its value is 1 µg/mL (≈ 0.685 µM).

Question: And the “MIC Staphylococcus aureus (GC 3053)” value ([5]; strain GC 3053)?
Answer: The value was 2 µg/mL (≈ 1.37 µM).

Question: What about the “MIC Staphylococcus aureus (GC 4541)” value ([5]; strain GC 4541) of the same compound?
Answer: Its value is 1 µg/mL (≈ 0.685 µM).

Question: And the “MIC Staphylococcus aureus (GC 4542)” value ([5]; strain GC 4542)?
Answer: Its value is 1 µg/mL (≈ 0.685 µM).

Question: What about the “MIC Staphylococcus aureus-SMITH (GC 4543)” value ([5]; strain GC 4543) of the same compound?
Answer: Its value is 1 µg/mL (≈ 0.685 µM).

Question: And the “MIC Staphylococcus aureus (GC 4544)” value ([5]; strain GC 4544)?
Answer: Its value is 2 µg/mL (≈ 1.37 µM).

Question: And the “MIC Staphylococcus aureus (GC 4545)” value ([5]; strain GC 4545)?
Answer: Its value is 1 µg/mL (≈ 0.685 µM).

Question: And the “MIC Staphylococcus haemolyticus (GC 4546)” value ([5]; strain GC 4546)?
Answer: Its value is 1 µg/mL (≈ 0.685 µM).

Question: And the “MIC Coagulase Negative Staphylococcus (GC 4547)” value ([5]; strain GC 4547)?
Answer: Its value is 2 µg/mL (≈ 1.37 µM).

Question: And the “MIC Coagulase Negative Staphylococcus (GC 4548)” value ([5]; strain GC 4548)?
Answer: Its value is 0.5 µg/mL (≈ 0.343 µM).

Question: What about the “MIC Coagulase Negative Staphylococcus (GC 4549)” value ([5]; strain GC 4549) of the same compound?
Answer: Its value is 0.25 µg/mL (≈ 0.171 µM).

Question: And the “MIC Coagulase Negative Staphylococcus (GC 4551)” value ([5]; strain GC 4551)?
Answer: Its value is 2 µg/mL (≈ 1.37 µM).

Question: And the “MIC Coagulase Negative Staphylococcus (GC 6257)” value ([5]; strain GC 6257)?
Answer: Its value is 1 µg/mL (≈ 0.685 µM).
